Reference: patent US10894777B2, “TG2 inhibitor piperazine compounds and uses thereof” (UNIVERSITY OF OTTAWA, priority 2016, dated 2021)

Experiments:
TG2 [1] = biological target: T1, TG2 (Homo sapiens, UniProt P21980); experiment: Kinetic inactivation of purified recombinant human TG2, continuous spectrophotometric activity assay (Examples 3, 10); type: biochemical; parameters: made in house; conditions: Table 4; for kinact/KI: read-out: kinact/Ki (μM^−1 min^−1), for ^a no saturation observed, efficiency obtained from initial slope
T1 sequence (P21980 1-687): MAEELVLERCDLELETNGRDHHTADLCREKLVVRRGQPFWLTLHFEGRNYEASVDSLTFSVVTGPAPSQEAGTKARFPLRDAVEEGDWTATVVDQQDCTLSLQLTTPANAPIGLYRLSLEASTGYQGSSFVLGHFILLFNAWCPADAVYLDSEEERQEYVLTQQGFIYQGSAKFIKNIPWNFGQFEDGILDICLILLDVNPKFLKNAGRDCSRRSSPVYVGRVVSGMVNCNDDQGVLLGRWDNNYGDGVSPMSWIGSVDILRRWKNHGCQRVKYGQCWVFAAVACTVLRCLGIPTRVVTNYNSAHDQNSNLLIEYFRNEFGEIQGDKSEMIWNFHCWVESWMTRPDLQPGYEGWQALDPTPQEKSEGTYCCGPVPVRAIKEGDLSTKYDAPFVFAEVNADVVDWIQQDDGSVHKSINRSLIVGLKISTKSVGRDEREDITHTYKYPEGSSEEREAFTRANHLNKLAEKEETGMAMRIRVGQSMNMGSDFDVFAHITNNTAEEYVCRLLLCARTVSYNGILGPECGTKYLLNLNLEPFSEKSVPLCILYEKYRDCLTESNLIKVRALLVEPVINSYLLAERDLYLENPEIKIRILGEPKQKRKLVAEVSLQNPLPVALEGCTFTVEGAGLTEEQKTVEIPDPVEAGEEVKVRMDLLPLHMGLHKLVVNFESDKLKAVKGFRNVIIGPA
Description: Kinetic studies were carried out in vitro, using purified recombinant human TG2 (Roy, I. et al., Protein Expr. Purif. 87: 41-46, 2013) and a direct, continuous spectrophotometric activity assay (Leblanc, A. et al., Biochemistry 40: 8335-8342, 2001).
Kinetics. Kinetic runs were performed at 25° C. in 100 mM MOPS buffer (pH 7.0) containing 3 mM CaCl2 and 50 μM EDTA. […] Stock solutions of the substrate and inhibitors were prepared in DMF such that the final concentration of this co-solvent was constant at 10% v/v. Reactions were initiated with the addition of enzyme with an activity of approximately 0.05 U/mL. Kinetic evaluation was carried out by the method of Stone and Hofsteenge (Stone, S. R. and Hofsteenge, J., Biochem. J. 230: 497-502, 1985). […] Observed first-order rate constants of inactivation were determined from non-linear regression, to a mono-exponential model. These rate constants were in turn fit to equation 1 by non-linear regression, providing the kinetic parameters
Kinetic parameters were determined as described above.

TG2 [2] = biological target: T1, TG2; experiment: Colorimetric transamidase activity assay (AL5 substrate), hTG2; type: biochemical; conditions: for kinact/KI: read-out: kinact/KI (10^3M^−1 min^−1); for enzyme inactivation, relative observed rate constants (kobs): high concentration of inhibitor (18 μM, FIG. 43)
Description: In Vitro Assays. Colorimetric transamidase activity assay. The activities of hTG1, hTG2 and hTG6 were measured via a colorimetric assay using the chromogenic substrate Cbz-Glu(γ-p-nitrophenyl ester)Gly (AL5). The assay was conducted at 25° C. in 100 mM MOPS buffer (pH 6.5) containing 3.0 mM CaCl2 and 50 μM EDTA. […] A stock solution of AL5 was prepared in DMSO such that the final concentration of this co-solvent was constant at 2.5% v/v. Stock solutions of the inhibitors were made in the buffer system previously described. The reaction was initiated with the addition of 40-60 mU/mL of the respective enzyme (0.10 μM hTG1, 0.25 μM hTG2 or 0.32 μM hTG6). Product formation was monitored at 405 nm in a polystyrene 96-well microplate using a BioTek Synergy 4 plate reader. […] Observed first-order rate constants of inactivation (kobs) were determined from non-linear regression fit to a mono-exponential model (Equation 1) of the observed absorbance of the enzymatic hydrolysis product, p-nitrophenolate (pNP). […] Experiments were done in triplicate and variation between repeats was less than 30%.

[3] = Table 8, read-out: kinact (converted)
[4] = Table 5, read-out: kinact (converted)
[5] = Table 7, read-out: kinact (converted)

Structure (SMILES)	kinact (TG2 [1]) [s⁻¹]	kinact/KI (TG2 [1]) [M⁻¹ s⁻¹]	melting point [°C]	kinact (TG2 [2]; [5]) [s⁻¹]	kinact/KI (TG2 [2]; Table 7) [M⁻¹ s⁻¹]	also measured
C=CC(=O)NCCCC[C@H](NC(=O)OCc1ccccc1)C(=O)N1CCN(C(=O)c2ccc3ccccc3c2)CC1 [AA10, (S)-benzyl(1-(4-(2-naphthoyl)piperazin-1-yl)-6-acrylamido-1-oxohexan-2-yl)carbamate]	0.0202	4000	–	–	–	kinact (TG2 [2]; [3]): 0.0202 s⁻¹; kinact/KI (TG2 [2]; Table 8): 1500 M⁻¹ s⁻¹
C=CC(=O)NCCCC[C@H](NC(=O)OCc1ccccc1)C(=O)NCCCCNS(=O)(=O)c1cccc2c(N(C)C)cccc12 [Compound 109, (S)-benzyl (6-acrylamido-1-((4-(5-(dimethylamino)naphthalene-1-sulfonamido)butyl)amino)-1-oxohexan-2-yl)carbamate]	–	883	54 to 56	–	–	kinact (TG2 [2]; [4]): 0.0365 s⁻¹; kinact/KI (TG2 [2]; Table 5): 1350 M⁻¹ s⁻¹
C=CC(=O)NCCCC[C@H](NC(=O)OCc1ccccc1)C(=O)NCCCNS(=O)(=O)c1cccc2c(N(C)C)cccc12 [Compound 110, (S)-benzyl (6-acrylamido-1-((3-(5-(dimethylamino)naphthalene-1-sulfonamido)propyl)amino)-1-oxohexan-2-yl)carbamate]	–	783	65 to 67	–	–	kinact (TG2 [2]; [4]): 0.0142 s⁻¹; kinact/KI (TG2 [2]; Table 5): 460 M⁻¹ s⁻¹
C=CC(=O)NCCCC[C@H](NC(=O)OCc1ccccc1)C(=O)NCCNS(=O)(=O)c1cccc2c(N(C)C)cccc12 [Compound 111, (S)-benzyl (6-acrylamido-1-((2-(5-(dimethylamino)naphthalene-1-sulfonamido)ethyl)amino)-1-oxohexan-2-yl)carbamate]	0.0242	1030	–	–	–	kinact (TG2 [2]; [4]): 0.0242 s⁻¹; kinact/KI (TG2 [2]; Table 5): 1020 M⁻¹ s⁻¹
C=CC(=O)NC[C@H](NC(=O)OCc1ccccc1)C(=O)N1CCN(S(=O)(=O)c2cccc3c(N(C)C)cccc23)CC1 [Compound 115, (S)-benzyl (3-acrylamido-1-(4-((5-(dimethylamino)naphthalen-1-yl)sulfonyl)piperazin-1-yl)-1-oxopropan-2-yl)carbamate]	–	–	–	–	–	enzyme inactivation, relative observed rate constants (kobs) (TG2 [2]): no significant enzyme inactivation was observed
C=CC(=O)NCC[C@H](NC(=O)OCc1ccccc1)C(=O)N1CCN(S(=O)(=O)c2cccc3c(N(C)C)cccc23)CC1 [Compound 116, (S)-benzyl (4-acrylamido-1-(4-((5-(dimethylamino)naphthalen-1-yl)sulfonyl)piperazin-1-yl)-1-oxobutan-2-yl)carbamate]	–	–	–	–	–	enzyme inactivation, relative observed rate constants (kobs) (TG2 [2]): no significant enzyme inactivation was observed
C=CC(=O)NCCC[C@H](NC(=O)OCc1ccccc1)C(=O)N1CCN(S(=O)(=O)c2cccc3c(N(C)C)cccc23)CC1 [Compound 117, (S)-benzyl (5-acrylamido-1-(4-((5-(dimethylamino)naphthalen-1-yl)sulfonyl)piperazin-1-yl)-1-oxopentan-2-yl)carbamate]	0.0134	1480	69 to 70	–	–	kinact (TG2 [2]; Table 6, read-out: kinact (converted)): 0.0197 s⁻¹; enzyme inactivation, relative observed rate constants (kobs) (TG2 [2]): reappearance of enzyme inhibition albeit only modestly; kinact/KI (TG2 [2]; Table 6): 412 M⁻¹ s⁻¹
C=CC(=O)NCCCC[C@H](NC(=O)OCc1ccccc1)C(=O)N1CCN(S(=O)(=O)c2cccc3ccccc23)CC1 [Compound 128, (S)-benzyl 6-acrylamido-1-(4-(naphthalen-1-ylsulfonyl)piperazin-1-yl)-1-oxohexan-2-yl-carbamate]	0.0082	2130	59 to 61	0.0065	620	rate constant of inactivation relative to VA4 (TG2 [2]): more than three-fold less
C=CC(=O)NCCCC[C@H](NC(=O)OCc1ccccc1)C(=O)N1CCN(S(=O)(=O)c2ccccc2)CC1 [Compound 130, (S)-benzyl (6-acrylamido-1-oxo-1-(4-(phenylsulfonyl)piperazin-1-yl)hexan-2-yl)carbamate]	0.0102	2180	–	0.00783	888	–
C=CC(=O)NCCCC[C@H](NC(=O)OCc1ccccc1)C(=O)N1CCN(S(C)(=O)=O)CC1 [Compound 135, (S)-benzyl(6-acrylamido-1-(4-(methylsulfonyl)piperazin-1-yl)-1-oxohexan-2-yl)carbamate]	0.0153	2730	–	0.00833	1310	–
C=CC(=O)NCCC[C@H](NC(=O)OCc1ccccc1)C(=O)N1CCN(C(=O)c2ccccc2)CC1 [Compound 149, (S)-benzyl (5-acrylamido-1-(4-benzoylpiperazin-1-yl)-1-oxopentan-2-yl)carbamate]	–	–	–	–	–	kinact (TG2 [2]; [3]): 0.0795 s⁻¹; kinact/KI (TG2 [2]; Table 8): 2170 M⁻¹ s⁻¹
C=CC(=O)NCCCC[C@H](NC(=O)OCc1ccccc1)C(=O)N1CCN(C(=O)Cc2ccccc2)CC1 [Compound 150, (S)-benzyl (6-acrylamido-1-oxo-1-(4-(2-phenylacetyl)piperazin-1-yl)hexan-2-yl)carbamate]	–	–	48 to 49	–	–	kinact (TG2 [2]; [3]): 0.0377 s⁻¹; kinact/KI (TG2 [2]; Table 8): 1880 M⁻¹ s⁻¹
C=CC(=O)NCCC[C@H](NC(=O)OCc1ccccc1)C(=O)N1CCN(C(C)=O)CC1 [Compound 151, (S)-benzyl(1-(4-acetylpiperazin-1-yl)-5-acrylamido-1-oxopentan-2-yl)carbamate]	–	–	–	–	–	kinact (TG2 [2]; [3]): 0.0343 s⁻¹; overall inhibition efficiency compared to sulfonamide counterpart (TG2 [2]; amide (Table 8) vs sulfonamide (Table 7)): almost three times less; kinact/KI (TG2 [2]; Table 8): 615 M⁻¹ s⁻¹
C=CC(=O)NCCCC[C@H](NC(=O)OCc1ccccc1)C(=O)N1CCN(C(=O)c2ccccn2)CC1 [Compound 152, (S)-benzyl(6-acrylamido-1-oxo-1-(4-picolinoylpiperazin-1-yl)hexan-2-yl)carbamate]	–	–	–	–	–	kinact (TG2 [2]; Table 8): 0.0488 ± 0.00483 s⁻¹; kinact/KI (10^3M^−1 min^−1) (TG2 [2]; Table 8): 91.3 ± 17.9 10^3M^−1 min^−1
C=CC(=O)NCCCC[C@H](NC(=O)OCc1ccccc1)C(=O)N1CCN(C(=O)c2cccnc2)CC1 [Compound 153, (S)-benzyl (6-acrylamido-1-(4-nicotinoylpiperazin-1-yl)-1-oxohexan-2-yl)carbamate]	–	–	–	–	–	kinact (TG2 [2]; [3]): 0.024 s⁻¹; kinact/KI (TG2 [2]; Table 8): 1020 M⁻¹ s⁻¹
C=CC(=O)NCCCC[C@H](NC(=O)OCc1ccccc1)C(=O)N1CCN(C(=O)c2ccncc2)CC1 [Compound 154, (S)-benzyl-(6-acrylamido-1-(4-isonicotinoylpiperazin-1-yl)-1-oxohexan-2-yl)carbamate]	–	–	–	–	–	kinact (TG2 [2]; [3]): 0.0238 s⁻¹; kinact/KI (TG2 [2]; Table 8): 617 M⁻¹ s⁻¹

Further lines, with some results ahead:

kinact (TG2 [1]) [s⁻¹]	kinact/KI (TG2 [1]) [M⁻¹ s⁻¹]	melting point [°C]	kinact (TG2 [2]; [5]) [s⁻¹]	kinact/KI (TG2 [2]; Table 7) [M⁻¹ s⁻¹]	Structure (SMILES)	also measured
0.00643	2500	65 to 66	0.00633	955	C=CC(=O)NCCCC[C@H](NC(=O)OCc1ccccc1)C(=O)N1CCN(S(=O)(=O)c2ccc3ccccc3c2)CC1 [Compound 129, (S)-benzyl (6-acrylamido-1-(4-(naphthalen-2-ylsulfonyl)piperazin-1-yl)-1-oxohexan-2-yl)-carbamate]	–
0.00907	1900	50 to 52	0.00783	582	C=CC(=O)NCCCC[C@H](NC(=O)OCc1ccccc1)C(=O)N1CCN(S(=O)(=O)Cc2ccccc2)CC1 [Compound 131, (S)-benzyl (6-acrylamido-1-(4-(benzylsulfonyl)piperazin-1-yl)-1-oxohexan-2-yl)carbamate]	–
0.0083	2430	–	0.0115	1050	C=CC(=O)NCCCC[C@H](NC(=O)OCc1ccccc1)C(=O)N1CCN(S(=O)(=O)C2CCCCC2)CC1 [Compound 132, (S)-benzyl (6-acrylamido-1-(4-(cyclohexylsulfonyl)piperazin-1-yl)-1-oxohexan-2-yl)carbamate]	–
–	–	–	0.0237	657	C=CC(=O)NCCCC[C@H](NC(=O)OCc1ccccc1)C(=O)N1CCN(S(=O)(=O)CC)CC1 [Compound 134, (S)-benzyl (6-acrylamido-1-(4-(ethylsulfonyl)piperazin-1-yl)-1-oxohexan-2-yl)carbamate]	–
–	–	–	0.0247	613	C=CC(=O)NCCCC[C@H](NC(=O)OCc1ccccc1)C(=O)N1CCN(S(=O)(=O)c2cccs2)CC1 [Compound 136, (S)-benzyl(6-acrylamido-1-oxo-1-(4-(thiophen-2-ylsulfonyl)piperazin-1-yl)hexan-2-yl)carbamate]	–
